# “Also recorded” adds a separate entry of the source.
# Tests used:
# [1] = test system: RAW264.7 cells; test: EFAD formation in activated RAW264.7 cells treated with inhibitors; assay type: cell-based, murine
# [2] = molecular target: T1, PPARγ (Homo sapiens, UniProt P37231); test: PPARγ beta-lactamase reporter assay; assay type: cell-based; conditions: concentrations 0.5-10,000 nM, read-out: EC50 PPARγ activation
# T1 sequence (P37231 1-505): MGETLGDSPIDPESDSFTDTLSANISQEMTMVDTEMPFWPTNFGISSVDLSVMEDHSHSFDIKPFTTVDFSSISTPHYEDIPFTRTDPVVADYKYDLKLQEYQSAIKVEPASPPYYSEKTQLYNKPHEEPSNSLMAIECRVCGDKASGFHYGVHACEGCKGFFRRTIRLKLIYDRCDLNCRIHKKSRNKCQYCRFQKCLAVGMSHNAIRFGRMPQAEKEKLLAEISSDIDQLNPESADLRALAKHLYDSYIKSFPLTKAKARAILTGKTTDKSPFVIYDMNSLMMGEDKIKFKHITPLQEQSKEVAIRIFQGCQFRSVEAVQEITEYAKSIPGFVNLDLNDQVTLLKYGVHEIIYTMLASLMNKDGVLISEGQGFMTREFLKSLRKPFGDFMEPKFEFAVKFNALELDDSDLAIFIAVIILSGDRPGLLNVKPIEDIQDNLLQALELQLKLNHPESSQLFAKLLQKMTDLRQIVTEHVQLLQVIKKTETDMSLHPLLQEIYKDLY
# Method: (§1) FIG. 11 illustrates modulation of anti-oxidant and inflammatory responses by 17-oxoDHA and 17-oxoDPA. RAW264.7 cells were treated with increasing concentration of 17-oxoDHA and 17-oxoDPA. (a) Cells were harvested 1 h after treatment and Nrf2 levels were quantified in nuclear extracts, (b) Cells were harvested 18 h after treatment and HO—I and Nqol (upper band) levels were measured by western blot, (c, d) RAW264.7 cells were treated with increasing concentration of 17-oxoDHA and 17-oxoDP A for 6 h and Kdo2+IFNγ were added. Samples were collected at 12 h. IL-6, MCP-I and IL-IO levels were measured in the cell media by Quantikine ELISA Kit (R&D Systems) and normalized by the total protein content (c); Nitrite levels were measured in the cell media and normalized by the total protein content and iNOS and Cox-2 levels were measured in total cell lysates (d); (e) PPARγ beta-lactamase reporter assays were performed for Rosiglitazone, 17-OxoDPA, 17-OxoDHA, 15d-PGJ2, 17-hydroxyDHA, DPA, and DHA with concentrations ranging from 0.5-10,000 nM.
# The observation that oxo-fatty acids, such as 15d-PGJ230, 5-oxoEPA, 6-oxoOTE, and the synthetic 4-oxoDHA31, covalently bind and activate the peroxisome proliferator-activated receptor γ (PPARγ), prompted the present inventors to test the ability of 17-oxoDPA, and 17-oxoDHA to activate PPARγ. Thus PPARγ beta-lactamase reporter assays were performed using Roziglitazone, a potent synthetic PPARγ agonist, was used in the assay as positive control.
# [3] = test system: RAW264.7 cells; test: Nitrite levels in cell media of activated RAW264.7 cells (Griess reaction); assay type: cell-based, murine; conditions: 6 h pretreatment, then Kdo2+IFNγ, 12 h
# Method: as §1
# For activation experiments RAW 264.7 cells were seeded, incubated overnight, and treated at approximately 80% confluence with the indicated compounds 47. […]
# (§2) Total nitrite and nitrate concentration was measured in cell culture media by Griess reaction using the Nitrate/Nitrite Colorimetric Assay Kit (Cayman Chemical).
# [4] = test system: RAW264.7 cells; test: Cytokine levels (IL-6, MCP-I, IL-10) in activated RAW264.7 cells, ELISA; assay type: cell-based, murine
# Method: as §1
# To investigate whether the 17-oxo DHA and 17-oxo DPA played a role in modulating the inflammatory response generated by Kdo2 and IFNγ, the present investigators study the change in levels of cytokines, IL-6, MCP-I and IL-IO in cells exposed to increasing doses of 17-oxo DHA and 17-oxo DPA. […]
# [5] = test system: Nrf2; test: Nrf2 nuclear accumulation and HO-1/Nqo1 expression, western blot; assay type: cell-based, murine; conditions: RAW264.7; Nrf2 at 1 h, HO-1/Nqo1 at 18 h
# Method: as §1
# As described above, compounds of the invention can react with biological thiols to form reversible covalent adducts. […]
# (§3) Protein concentrations of samples were measured by BCA assay (Pierce). […] Actin (detected by Sigma A2066) was used as loading control. […]
# [6] = test system: inducible nitric oxide synthase (iNOS); test: iNOS induction and nitrite accumulation in activated RAW264.7 cells; assay type: cell-based, murine; conditions: RAW264.7 activated with Kdo2 and IFNγ
# Method: as §1
# For activation experiments RAW 264.7 cells were seeded, incubated overnight, and treated at approximately 80% confluence with the indicated compounds 47. Non-activated controls were treated with vehicle alone. During activation, cells were maintained in an activation medium (SMEM) of Minimum Essential Medium Eagle (Cellgro, 17-305)+2% FBS supplemented with L-glutamine (584 mg/L), Na-pyruvate (110 mg/L) and Hepes (3.57 g/L, pH 7.4). For inhibition studies, inhibitors were added to the medium at the time of activation and MTT assays were used to confirm cell viability. Cells were harvested 20 h post activation (unless otherwise indicated) in 50 mM phosphate buffer (pH 7.4) and snap frozen in liquid N2. […]
# as §3, §2
# [7] = molecular target: GAPDH (Oryctolagus cuniculus, UniProt P46406); test: In vitro alkylation of GAPDH, mass spectrometric analysis; assay type: biochemical, rabbit
# Source text: FIG. 21 illustrates the mass spectrometric analysis of an in vitro reaction of GAPDHvith EFAD-2. Four residues were detected and confirmed-as being targets for EfAD-2 in treated rabbit GAPDH. The peptides were alkylated as Cys244 (a), His163 (b), Cys149 (c) and His328 (d). Upper panels show EFAD-2 modified peptides and lower panels show spectra from corresponding native peptide.
# To more specifically test the binding of EFADs to nucleophilic residues in proteins, we tested whether GAPDH was alkylated by EFADs. This enzyme is a well-characterized target for electrophiles and becomes easily inactivated by nitrosylation, oxidation or nucleophilic addition.
# [8] = RAW264.7 activated with Kdo2 and IFNγ, inhibitor added at activation, 20 h
# Chain of GAPDH (P46406 whole entry): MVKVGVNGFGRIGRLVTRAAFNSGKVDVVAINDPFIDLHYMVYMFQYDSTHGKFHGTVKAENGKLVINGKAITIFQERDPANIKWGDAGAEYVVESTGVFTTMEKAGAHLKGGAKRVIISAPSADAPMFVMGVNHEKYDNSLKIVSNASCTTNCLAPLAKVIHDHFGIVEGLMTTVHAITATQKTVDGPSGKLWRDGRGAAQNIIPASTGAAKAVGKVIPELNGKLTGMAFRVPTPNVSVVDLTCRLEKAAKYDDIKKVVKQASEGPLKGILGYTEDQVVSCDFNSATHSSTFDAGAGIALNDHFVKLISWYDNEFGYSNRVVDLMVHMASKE
smiles,measurement,setting,value
CC(C)c1ccc2c(c1)c(SC(C)(C)C)c(CC(C)(C)C(=O)O)n2Cc1ccc(Cl)cc1 [MK886],effect on EFAD formation,[1]; [8],no significant effect
"CC/C=C\CC(O)/C=C/C=C\C/C=C\C/C=C\CCCCCC(=O)O (stereo not shown) [17-OH-DPA, 17-OH(7Z,10Z,13Z,15A,19Z)-docosa-7,10,13,15,19-pentanoic acid, reference compound]",EC50,[2],> 10000 nM
O=C(O)Cc1ccccc1Nc1c(Cl)cccc1Cl [diclofenac],effect on EFAD formation,[1]; [8],completely abolish
CC(C)Cc1ccc(C(C)C(=O)O)cc1 (racemic) [ibuprofen],inhibition of EFAD production,[1]; [8],more than 80%
same,effect on EFAD-I formation,"[1]; ibuprofen 100 μM, exception stated in the text",no significant effect
"CC/C=C\CC(=O)C=C/C=C\C/C=C\C/C=C\CCCCCC(=O)O [17-oxoDPA, 17-oxo-(7Z,10Z,13Z,15A,19Z)-docosa-7,10,13,15,19-pentanoic acid]",EC50,[2],~40 nM
same,reduction of nitrite production,[3]; 25 μM,−70%
same,IFNγ and LPS-induced cytokine production,[4],inhibited
same,Nrf2 nuclear accumulation and expression of HO-1 and Nqo1,[5],promoted dose-dependent Nrf2 nuclear accumulation; also recorded: induced the anti-oxidant response
same,iNOS induction and accumulation of nitrite in the cell media,[6],dose-dependent inhibition
same,adduct formation with GAPDH residues,[7],covalently bind Cys and His residues
"CC/C=C\CC(=O)C=C/C=C\C/C=C\C/C=C\C/C=C\CCC(=O)O [17-oxoDHA, 17-oxo-(4Z,7Z,10Z,13Z,15A,19Z)-docosa-4,7,10,13,15,19-hexanoic acid]",EC50,[2],~40 nM
same,reduction of nitrite production,[3]; 20 μM,−70%
same,IFNγ and LPS-induced cytokine production,[4],inhibited
same,Nrf2 nuclear accumulation and expression of HO-1 and Nqo1,[5],promoted dose-dependent Nrf2 nuclear accumulation; also recorded: induced the anti-oxidant response
same,iNOS induction and accumulation of nitrite in the cell media,[6],dose-dependent inhibition
same,adduct formation with GAPDH residues,[7],covalently bind Cys and His residues
"C=C1[C@@H](O)[C@@H]2O[C@]3(CC[C@H](/C=C/[C@@H](C)[C@@H]4CC(C)=C[C@@]5(O[C@H](C[C@@](C)(O)C(=O)O)CC[C@H]5O)O4)O3)CC[C@H]2O[C@@H]1[C@@H](O)C[C@H](C)[C@H]1O[C@@]2(CCCCO2)CC[C@H]1C [OKA, okadaic acid]",effect on EFAD formation,[1]; [8],slight increase
CS(=O)(=O)Nc1ccc([N+](=O)[O-])cc1OC1CCCCC1 [NS-398],effect on EFAD formation,[1]; [8],abolished
COc1ccc2c(c1)c(CC(=O)O)c(C)n2C(=O)c1ccc(Cl)cc1 [Indomethacin],effect on EFAD formation,[1]; [8],completely abolish
"CCCCCC#CCC#CCC#CCC#CCCCC(=O)O [ETYA, Eicosatetraynoic acid]",effect on EFAD formation,[1]; [8],strongly inhibit
"CCCCCC=CC=C1C(=O)C=C[C@@H]1CC=CCCCC(=O)O [15d-PGJ2, 15-deoxy-Δ (12,14)-prostaglandin J2, reference compound]",EC50,[2],~25 nM

# Reference: US20150018417A1, “FATTY ACIDS AS ANTI-INFLAMMATORY AGENTS” (University of Pittsburgh - Of the Commonwealth System of …, priority 2012, published 2015)
